Experimental findings from patent US20260207563A1, “UREA COMPOUNDS AS ACTIVATORS OF POTASSIUM CHANNELS KV7.2/7.3 USEFUL IN THE TREATMENT OF CNS AND PNS DISORDERS” (ANGELINI PHARMA S.P.A., priority 2022, published 2026) are described below.

What all share (type): cell-based
The target of assay [1] is T1, heteromeric KV7.3/KV7.5 channel (KCNQ3, KCNQ5) (Homo sapiens, UniProt O43525+Q9NR82).
T1 construct: host or cells: HEK293
The assay is described as follows: Automated patch-clamp counter-screening against KV7.3/KV7.5 channel. To be noted: HEK293 cells expressing Kv7.3/KV7.5; class by maximal shift in the Vhalf at 30 μM. How it is done:
Assessment of in vitro potency against KV7.3/KV7.5 channels
Counter-screening was also carried out against the heteromeric KV7.3/KV7.5 channel (KCNQ3, Uniprot ID 043525; KCNQ5, Uniprot ID Q9NR82). The cell line used was a stably transfected HEK293 cell line with constitutive Kv7.3 expression and tetracycline inducible KV7.5 expression supplied by Charles River Laboratories.
Cells were maintained in the following culture media: • DMEM/F-12 with GlutaMAX™ (Life Technologies 31331-028), • 10% Tet Systems FCS (Clonetech 631106), • 500 μg/ml Geneticin™ selective antibiotic (G418, Invitrogen 1013-027), • 5 μg/ml Blasticidin S HCl (InvivoGen ant-bl-5), and • 100 μg/ml Zeocin (InvivoGen: ant-zn-5).
(§1) Cell maintenance, preparation, recording conditions and voltage protocols were all identical to those above.
(§2) Analysis of Data for Assessment of Potency
(§3) 10 concentrations of test compounds were applied to individual wells in quadruplicate to assess potency as a 1 in 3 dilution series from the maximal concentration of 30 μM. The average shift in the voltage for half activation (Vhalf) for each concentration was used to generate concentration-response curves fitted with a 4-parameter logistic model to estimate the EC50 from the point of inflection of the curve and the maximal shift in the Vhalf from the top of the curve.
(§4) The lower the EC50 value, the higher the potency of the analyzed compound. The selectivity criteria is assigned on the basis of the maximal shift in the Vhalf at 30 μM. […] In Table 3, ND means that selectivity was not determined.

The target in assay [2] is T2, homomeric KV7.4 channel (KCNQ4) (Homo sapiens, UniProt P56696).
T2 construct: host or cells: CHO-K1
The assay is described as follows: Automated patch-clamp (Qube) counter-screening assay against KV7.4 channel. To be noted: CHO-K1 cells expressing KV7.4; class by maximal shift in the Vhalf at 30 μM.
From the text: Assessment of In Vitro Potency Against KV7.4 Channels
A counter-screening assay was also developed on the Qube against the homomeric KV7.4 channel (KCNQ4, Uniprot ID P56696). The cell line used was a stably transfected CHO-K1 with constitutive KV7.4 expression supplied by Charles River Laboratories.
CHO-K1 cells stably expressing KV7.4 channels were maintained in the following culture media: • Hams F-12 with GlutaMAX™ (Life Technologies 31765027), • 10% Fetal clone 2 serum (Perbio Science SH30066.03), and • 250 μg/ml Geneticin™ selective antibiotic (G418, Invitrogen 1013-027).
as §1, §2, §3, §4
Background: The patch-clamp technique gives a direct electrical read-out from membranes.

Assay [3] concerns the target T3, heteromeric KV7.2/KV7.3 channels (KCNQ2, KCNQ3) (Homo sapiens, UniProt O43525+O43526).
T3 construct: expressed in transfected cells; host or cells: CHO-K1
The assay is described as follows: Automated patch-clamp (Sophion Qube 384) potency assay against KV7.2/KV7.3 channels. The conditions noted are these: CHO-K1/Kv7.2/Kv7.3 cells; for EC50: EC50 from concentration-response of shift in Vhalf, 10 concentrations up to 30 μM, read-out: Kv7.2/7.3 EC50; for Kv7.2/7.3 ΔV1/2: maximal shift in the Vhalf from the top of the curve. In a few lines:
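Whole-cell automated patch clamp on CHO-K1 cells stably expressing human KV7.2/KV7.3, held at −80 mV; I-V steps −100 to +20 mV (1 s) with 0 mV tail pulses, Boltzmann-fitted activation curves. Ten concentrations (1:3 from 30 μM, quadruplicate) versus 0.3% DMSO control; EC50 and maximal shift from 4-parameter fits of Vhalf shift.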

Regarding `O=C(NCCC1(C(F)(F)F)CC1)NCc1ccnc(OCc2ccc(F)cc2)c1` [Compound 14, 1-((2-((4-Fluorobenzyl)oxy)pyridin-4-yl)methyl)-3-(2-(1-(trifluoromethyl)cyclopropyl)ethyl)urea], in assay [1], the Kv7.3/7.5 selectivity criteria entry is listed as “A (Selective compounds showed Kv7.4 and/or Kv7.3/7.5 ΔV1/2 equal to or lower than 15 mV (letter A in table 3))”. Also, in assay [2], the Kv7.4 selectivity criteria result is “B (Non-selective compounds showed Kv7.4 and/or Kv7.3/7.5 ΔV1/2 higher than 15 mV (letter B in table 3))”. Moreover, in assay [3], the EC50 stood at 392 nM and the “Kv7.2/7.3 ΔV1/2” value came to 26.52 mV.
As for `O=C(NCCC1(C(F)(F)F)CC1)NCc1ccnc(OCC2CC(F)(F)C2)c1` [Compound 15, 1-((2-((3,3-Difluorocyclobutyl)methoxy)pyridin-4-yl)methyl)-3-(2-(1-(trifluoromethyl)cyclopropyl)ethyl)urea], the Kv7.3/7.5 selectivity criteria entry in assay [1] was “A (Selective compounds showed Kv7.4 and/or Kv7.3/7.5 ΔV1/2 equal to or lower than 15 mV (letter A in table 3))”. The Kv7.4 selectivity criteria entry in assay [2] is on record as “A (Selective compounds showed Kv7.4 and/or Kv7.3/7.5 ΔV1/2 equal to or lower than 15 mV (letter A in table 3))”. In assay [3], the EC50 stood at 2020 nM and the “Kv7.2/7.3 ΔV1/2” value was found to be 25.72 mV.
In the case of `O=C(NCCC1(C(F)(F)F)CC1)NCc1ccnc(NCC(F)(F)F)c1` [Compound 16, 1-((2-((2,2,2-Trifluoroethyl)amino)pyridin-4-yl)methyl)-3-(2-(1-(trifluoromethyl)cyclopropyl)ethyl)urea], the Kv7.3/7.5 selectivity criteria result in assay [1] is “A (Selective compounds showed Kv7.4 and/or Kv7.3/7.5 ΔV1/2 equal to or lower than 15 mV (letter A in table 3))”. For the same compound, the Kv7.4 selectivity criteria entry in assay [2] is reported as “A (Selective compounds showed Kv7.4 and/or Kv7.3/7.5 ΔV1/2 equal to or lower than 15 mV (letter A in table 3))”. Also, in assay [3], the EC50 turned out to be 6230 nM and the “Kv7.2/7.3 ΔV1/2” value came to 20.12 mV.
With `O=C(NCCC1(C(F)(F)F)CC1)NCc1ccnc(OCCF)c1` [Compound 17, 1-((2-(2-Fluoroethoxy)pyridin-4-yl)methyl)-3-(2-(1-(trifluoromethyl)cyclopropyl)ethyl)urea], in assay [1], the Kv7.3/7.5 selectivity criteria result is “A (Selective compounds showed Kv7.4 and/or Kv7.3/7.5 ΔV1/2 equal to or lower than 15 mV (letter A in table 3))”. In addition, the Kv7.4 selectivity criteria result in assay [2] is given as “A (Selective compounds showed Kv7.4 and/or Kv7.3/7.5 ΔV1/2 equal to or lower than 15 mV (letter A in table 3))”. Moreover, in assay [3], the EC50 was determined as 5450 nM and the “Kv7.2/7.3 ΔV1/2” value came to 28.27 mV.
For the compound `O=C(NCCC1(C(F)(F)F)CC1)NCc1ccnc(OCC(F)F)c1` [Compound 18, 1-((2-(2,2-Difluoroethoxy)pyridin-4-yl)methyl)-3-(2-(1-(trifluoromethyl)cyclopropyl)ethyl)urea], in assay [1], the Kv7.3/7.5 selectivity criteria entry is “A (Selective compounds showed Kv7.4 and/or Kv7.3/7.5 ΔV1/2 equal to or lower than 15 mV (letter A in table 3))”. For the same compound, in assay [2], the Kv7.4 selectivity criteria entry is on record as “A (Selective compounds showed Kv7.4 and/or Kv7.3/7.5 ΔV1/2 equal to or lower than 15 mV (letter A in table 3))”. Moreover, in assay [3], the EC50 was determined as 649 nM and the “Kv7.2/7.3 ΔV1/2” value was determined as 24.69 mV.
As for `O=C(NCCC1(C(F)(F)F)CC1)NCc1ccnc(OCc2ccccc2F)c1` [Compound 19, 1-((2-((2-Fluorobenzyl)oxy)pyridin-4-yl)methyl)-3-(2-(1-(trifluoromethyl)cyclopropyl)ethyl)urea], in assay [1], the Kv7.3/7.5 selectivity criteria result is given as “A (Selective compounds showed Kv7.4 and/or Kv7.3/7.5 ΔV1/2 equal to or lower than 15 mV (letter A in table 3))”. The Kv7.4 selectivity criteria entry in assay [2] was “A (Selective compounds showed Kv7.4 and/or Kv7.3/7.5 ΔV1/2 equal to or lower than 15 mV (letter A in table 3))”. Besides, in assay [3], the EC50 came to 263 nM and the “Kv7.2/7.3 ΔV1/2” value is listed as 23.76 mV.
Take `CC(F)(F)COc1cc(CNC(=O)NCCC2(C(F)(F)F)CC2)ccn1` [Compound 20, 1-((2-(2,2-Difluoropropoxy)pyridin-4-yl)methyl)-3-(2-(1-(trifluoromethyl)cyclopropyl)ethyl)urea]: the Kv7.3/7.5 selectivity criteria entry in assay [1] is “A (Selective compounds showed Kv7.4 and/or Kv7.3/7.5 ΔV1/2 equal to or lower than 15 mV (letter A in table 3))”. Besides, the Kv7.4 selectivity criteria result in assay [2] was “A (Selective compounds showed Kv7.4 and/or Kv7.3/7.5 ΔV1/2 equal to or lower than 15 mV (letter A in table 3))”. In addition, in assay [3], the EC50 worked out at 689 nM and the “Kv7.2/7.3 ΔV1/2” value was determined as 29.4 mV.
Take `O=C(NCCC1(C(F)(F)F)CC1)NC1CCCc2cnc(OCC(F)(F)F)cc21` (stereo not shown) [Compound 21, 1-(3-(2,2,2-Trifluoroethoxy)-5,6,7,8-tetrahydroisoquinolin-5-yl)-3-(2-(1-(trifluoromethyl)cyclopropyl)ethyl)urea]: the Kv7.3/7.5 selectivity criteria entry in assay [1] was “B (Non-selective compounds showed Kv7.4 and/or Kv7.3/7.5 ΔV1/2 higher than 15 mV (letter B in table 3))”. Also, in assay [2], the Kv7.4 selectivity criteria entry is given as “B (Non-selective compounds showed Kv7.4 and/or Kv7.3/7.5 ΔV1/2 higher than 15 mV (letter B in table 3))”. Besides, in assay [3], the EC50 was determined as 1800 nM and the “Kv7.2/7.3 ΔV1/2” value was determined as 14.76 mV.
`O=C(NCCC1(C(F)(F)F)CC1)NCc1ccnc(OCC2(F)CC2)c1` [Compound 22, 1-((2-((1-Fluorocyclopropyl)methoxy)pyridin-4-yl)methyl)-3-(2-(1-(trifluoromethyl)cyclopropyl)ethyl)urea]: the Kv7.3/7.5 selectivity criteria entry in assay [1] is “A (Selective compounds showed Kv7.4 and/or Kv7.3/7.5 ΔV1/2 equal to or lower than 15 mV (letter A in table 3))”. The Kv7.4 selectivity criteria result in assay [2] was “A (Selective compounds showed Kv7.4 and/or Kv7.3/7.5 ΔV1/2 equal to or lower than 15 mV (letter A in table 3))”. Besides, in assay [3], the EC50 came to 1940 nM and the “Kv7.2/7.3 ΔV1/2” value turned out to be 27.07 mV.
With `O=C(NCCC1(C(F)(F)F)CC1)NCc1ccnc(OCc2ccccn2)c1` [Compound 23, 1-((2-(Pyridin-2-ylmethoxy)pyridin-4-yl)methyl)-3-(2-(1-(trifluoromethyl)cyclopropyl)ethyl)urea], the Kv7.3/7.5 selectivity criteria result in assay [1] is recorded as “A (Selective compounds showed Kv7.4 and/or Kv7.3/7.5 ΔV1/2 equal to or lower than 15 mV (letter A in table 3))”. Also, in assay [2], the Kv7.4 selectivity criteria entry is reported as “A (Selective compounds showed Kv7.4 and/or Kv7.3/7.5 ΔV1/2 equal to or lower than 15 mV (letter A in table 3))”. In assay [3], the EC50 turned out to be 4750 nM and the “Kv7.2/7.3 ΔV1/2” value is listed as 18.69 mV.
Regarding `O=C(NCCC1(C(F)(F)F)CC1)NCc1ccnc(OCC2(F)COC2)c1` [Compound 24, 1-((2-((3-Fluorooxetan-3-yl)methoxy)pyridin-4-yl)methyl)-3-(2-(1-(trifluoromethyl)cyclopropyl)ethyl)urea], the Kv7.3/7.5 selectivity criteria result in assay [1] is listed as “A (Selective compounds showed Kv7.4 and/or Kv7.3/7.5 ΔV1/2 equal to or lower than 15 mV (letter A in table 3))”. In assay [2], the Kv7.4 selectivity criteria result is recorded as “A (Selective compounds showed Kv7.4 and/or Kv7.3/7.5 ΔV1/2 equal to or lower than 15 mV (letter A in table 3))”. In addition, in assay [3], the EC50 was 11000 nM and the “Kv7.2/7.3 ΔV1/2” value was 17.14 mV.
As to `O=C(NCCC1(C(F)(F)F)CC1)NCc1ccnc(OCc2ccc(F)cc2F)c1` [Compound 25, 1-((2-((2,4-Difluorobenzyl)oxy)pyridin-4-yl)methyl)-3-(2-(1-(trifluoromethyl)cyclopropyl)ethyl)urea], the Kv7.3/7.5 selectivity criteria result in assay [1] is given as “A (Selective compounds showed Kv7.4 and/or Kv7.3/7.5 ΔV1/2 equal to or lower than 15 mV (letter A in table 3))”. Also, in assay [2], the Kv7.4 selectivity criteria entry was “A (Selective compounds showed Kv7.4 and/or Kv7.3/7.5 ΔV1/2 equal to or lower than 15 mV (letter A in table 3))”. In assay [3], the EC50 was found to be 400 nM and the “Kv7.2/7.3 ΔV1/2” value worked out at 25.77 mV.
As to `O=C(NCCC1(C(F)(F)F)CC1)NCc1cc(OCC(F)(F)F)nc(N2CCOCC2)c1` [Compound 26, 1-((2-Morpholino-6-(2,2,2-trifluoroethoxy)pyridin-4-yl)methyl)-3-(2-(1-(trifluoromethyl)cyclopropyl)ethyl)urea], the Kv7.3/7.5 selectivity criteria entry in assay [1] is given as “A (Selective compounds showed Kv7.4 and/or Kv7.3/7.5 ΔV1/2 equal to or lower than 15 mV (letter A in table 3))”. Besides, the Kv7.4 selectivity criteria entry in assay [2] is given as “B (Non-selective compounds showed Kv7.4 and/or Kv7.3/7.5 ΔV1/2 higher than 15 mV (letter B in table 3))”. Further, in assay [3], the EC50 came out at 5140 nM and the “Kv7.2/7.3 ΔV1/2” value was 31.67 mV.
